Assay in all cases: DSF 100 kinase selectivity screen;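 further: compound tested at 20 µM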
Holding throughout (format): binding

Experiment [1] deals with T1, ~100 representative kinases (Homo sapiens, UniProt P11309).
T1 construct: Recombinant protein kinase domains with a concentration of 2 μM
The following applies: protein PIM1; average of three replicates. The essentials:
(§1)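 Each kinase domain, at 2 μM, is mixed with 20 μM test compound and SYPRO Orange in Hepes (20 mM, pH 7.5) with 500 mM NaCl. Temperature is then raised at 3°C/min and fluorescence-monitored unfolding yields the melting temperature change, ΔTm in degrees Celsius.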

Experiment [2] addresses T2, ~100 representative kinases (Homo sapiens, UniProt P12931).
T2 construct: Recombinant protein kinase domains with a concentration of 2 μM
The settings on record: Protein SRC; DSF; average of three replicates. The gist of the method: as §1

Experiment [3] deals with T3, ~100 representative kinases (Homo sapiens, UniProt P21675).
T3 construct: Recombinant protein kinase domains with a concentration of 2 μM
The settings on record: Protein TAF1; DSF; average of three replicates. The gist of the method:
as §1

Experiment [4] has as its target T4, ~100 representative kinases (Homo sapiens, UniProt P45984).
T4 construct: Recombinant protein kinase domains with a concentration of 2 μM
The settings on record: protein MAPK9; average of three replicates. The essentials:
as §1

Experiment [5] addresses T5, ~100 representative kinases (Homo sapiens, UniProt P53779).
T5 construct: Recombinant protein kinase domains with a concentration of 2 μM
The following applies: protein MAPK10; average of three replicates. The gist of the method:
as §1

The target in experiment [6] is T6, ~100 representative kinases (Homo sapiens, UniProt Q09013).
T6 construct: Recombinant protein kinase domains with a concentration of 2 μM
T6 sequence (Q09013 1-629): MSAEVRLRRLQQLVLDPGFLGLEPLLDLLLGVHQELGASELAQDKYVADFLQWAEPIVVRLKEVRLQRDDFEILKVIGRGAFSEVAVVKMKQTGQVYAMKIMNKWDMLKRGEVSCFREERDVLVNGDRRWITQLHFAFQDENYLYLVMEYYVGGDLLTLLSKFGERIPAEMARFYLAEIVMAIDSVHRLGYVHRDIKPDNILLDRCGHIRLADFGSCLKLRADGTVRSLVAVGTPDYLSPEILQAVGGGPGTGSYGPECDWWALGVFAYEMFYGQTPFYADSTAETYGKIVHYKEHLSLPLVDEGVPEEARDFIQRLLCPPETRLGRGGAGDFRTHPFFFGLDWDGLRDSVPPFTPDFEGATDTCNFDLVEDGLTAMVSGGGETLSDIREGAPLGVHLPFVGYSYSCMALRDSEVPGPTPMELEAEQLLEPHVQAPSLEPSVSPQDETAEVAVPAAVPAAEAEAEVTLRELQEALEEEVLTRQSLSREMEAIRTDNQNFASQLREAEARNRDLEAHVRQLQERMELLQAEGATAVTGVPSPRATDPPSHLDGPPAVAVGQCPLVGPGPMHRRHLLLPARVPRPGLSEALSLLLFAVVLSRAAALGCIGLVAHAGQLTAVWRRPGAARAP
The settings on record: Protein DMPK1; average of three replicates. The essentials:
as §1

Experiment [7] addresses T7, ~100 representative kinases (Homo sapiens, UniProt Q16539).
T7 construct: Recombinant protein kinase domains with a concentration of 2 μM
The essentials:
as §1

Experiment [8] addresses T8, ~100 representative kinases (Homo sapiens, UniProt Q16566).
T8 construct: Recombinant protein kinase domains with a concentration of 2 μM
T8 sequence (Q16566 1-473): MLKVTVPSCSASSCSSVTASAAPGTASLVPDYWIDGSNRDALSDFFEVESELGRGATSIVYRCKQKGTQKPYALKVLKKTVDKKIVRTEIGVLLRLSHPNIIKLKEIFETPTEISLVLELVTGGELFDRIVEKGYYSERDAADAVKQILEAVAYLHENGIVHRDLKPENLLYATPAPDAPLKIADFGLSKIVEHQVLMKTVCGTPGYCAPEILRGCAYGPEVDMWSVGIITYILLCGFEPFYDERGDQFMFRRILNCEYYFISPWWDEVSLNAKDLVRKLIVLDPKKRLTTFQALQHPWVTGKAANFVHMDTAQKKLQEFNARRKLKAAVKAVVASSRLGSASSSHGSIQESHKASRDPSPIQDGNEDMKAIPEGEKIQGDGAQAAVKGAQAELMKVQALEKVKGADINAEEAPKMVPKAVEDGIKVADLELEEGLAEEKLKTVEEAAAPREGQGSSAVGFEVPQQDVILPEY
The settings on record: Protein CAMK4; average of three replicates. The gist of the method:
as §1

Experiment [9] addresses T9, ~100 representative kinases (Homo sapiens, UniProt Q6PHR2).
T9 construct: Recombinant protein kinase domains with a concentration of 2 μM
T9 sequence (Q6PHR2 1-472): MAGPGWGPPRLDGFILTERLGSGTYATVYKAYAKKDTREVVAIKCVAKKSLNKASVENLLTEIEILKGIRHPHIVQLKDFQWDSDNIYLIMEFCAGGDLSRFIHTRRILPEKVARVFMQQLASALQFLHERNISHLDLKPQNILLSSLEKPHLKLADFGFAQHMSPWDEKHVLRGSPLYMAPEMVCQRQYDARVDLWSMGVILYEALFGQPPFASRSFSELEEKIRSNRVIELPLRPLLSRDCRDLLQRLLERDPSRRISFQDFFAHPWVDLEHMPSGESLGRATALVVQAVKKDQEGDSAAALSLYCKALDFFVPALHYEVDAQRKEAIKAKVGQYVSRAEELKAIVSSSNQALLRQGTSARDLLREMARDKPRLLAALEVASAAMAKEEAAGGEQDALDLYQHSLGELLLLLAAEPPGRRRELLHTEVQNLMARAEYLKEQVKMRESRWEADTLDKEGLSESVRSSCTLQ
The settings on record: Protein ULK3; DSF; average of three replicates. The essentials:
as §1

Experiment [10] has as its target T10, ~100 representative kinases (Homo sapiens, UniProt Q9P289).
T10 construct: Recombinant protein kinase domains with a concentration of 2 μM
The following applies: protein MST4; average of three replicates. The gist of the method: as §1

The mark [11] stands for this setting: protein MAPK14, average of three replicates.

Where two headings read alike, the source gives them in different places.

T2 sequence (P12931 whole entry, the tested form may be a part): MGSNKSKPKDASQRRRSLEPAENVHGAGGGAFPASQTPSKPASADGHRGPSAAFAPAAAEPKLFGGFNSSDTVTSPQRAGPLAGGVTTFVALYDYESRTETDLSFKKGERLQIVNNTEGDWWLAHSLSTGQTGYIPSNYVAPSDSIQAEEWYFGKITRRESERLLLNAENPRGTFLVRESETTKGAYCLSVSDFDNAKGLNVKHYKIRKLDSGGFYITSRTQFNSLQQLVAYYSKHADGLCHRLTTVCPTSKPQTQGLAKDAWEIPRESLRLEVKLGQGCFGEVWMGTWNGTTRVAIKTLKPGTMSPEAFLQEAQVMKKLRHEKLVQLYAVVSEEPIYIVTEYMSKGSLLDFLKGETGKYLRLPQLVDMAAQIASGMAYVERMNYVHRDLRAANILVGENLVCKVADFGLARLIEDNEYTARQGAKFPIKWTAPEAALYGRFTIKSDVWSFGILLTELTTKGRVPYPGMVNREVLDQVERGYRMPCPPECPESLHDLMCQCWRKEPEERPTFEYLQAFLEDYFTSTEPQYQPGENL
T10 sequence (Q9P289 whole entry, the tested form may be a part): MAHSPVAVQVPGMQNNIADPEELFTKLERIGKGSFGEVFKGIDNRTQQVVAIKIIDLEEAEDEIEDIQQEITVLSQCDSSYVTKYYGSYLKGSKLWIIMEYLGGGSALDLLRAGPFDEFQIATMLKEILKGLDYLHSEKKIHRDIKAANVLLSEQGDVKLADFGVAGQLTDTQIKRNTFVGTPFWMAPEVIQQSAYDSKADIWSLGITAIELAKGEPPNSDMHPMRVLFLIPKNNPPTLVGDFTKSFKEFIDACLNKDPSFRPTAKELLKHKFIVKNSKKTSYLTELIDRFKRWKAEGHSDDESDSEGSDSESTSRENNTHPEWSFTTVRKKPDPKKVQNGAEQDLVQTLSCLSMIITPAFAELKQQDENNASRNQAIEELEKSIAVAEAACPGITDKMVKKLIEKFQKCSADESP
T1 sequence (P11309 whole entry, the tested form may be a part): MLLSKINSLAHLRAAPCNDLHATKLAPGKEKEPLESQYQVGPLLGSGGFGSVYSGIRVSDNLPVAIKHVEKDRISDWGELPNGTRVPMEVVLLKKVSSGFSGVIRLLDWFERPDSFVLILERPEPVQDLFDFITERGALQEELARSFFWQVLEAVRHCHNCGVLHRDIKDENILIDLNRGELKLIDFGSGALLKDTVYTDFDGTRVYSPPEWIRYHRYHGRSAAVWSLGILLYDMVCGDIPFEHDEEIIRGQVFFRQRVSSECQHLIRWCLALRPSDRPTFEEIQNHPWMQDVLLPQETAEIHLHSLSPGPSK
T4 sequence (P45984 whole entry, the tested form may be a part): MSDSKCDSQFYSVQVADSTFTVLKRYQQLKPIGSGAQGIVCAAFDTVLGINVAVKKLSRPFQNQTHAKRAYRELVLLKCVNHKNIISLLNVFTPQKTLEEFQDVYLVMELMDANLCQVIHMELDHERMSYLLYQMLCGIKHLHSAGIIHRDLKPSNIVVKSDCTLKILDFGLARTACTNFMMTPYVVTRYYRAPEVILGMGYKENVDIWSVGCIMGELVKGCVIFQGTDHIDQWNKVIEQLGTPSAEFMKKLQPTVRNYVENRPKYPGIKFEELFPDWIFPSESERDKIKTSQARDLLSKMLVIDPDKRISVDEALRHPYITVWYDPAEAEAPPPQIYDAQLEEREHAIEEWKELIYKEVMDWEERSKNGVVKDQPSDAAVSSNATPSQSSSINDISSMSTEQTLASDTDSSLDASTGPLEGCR
T3 sequence (P21675 whole entry, the tested form may be a part): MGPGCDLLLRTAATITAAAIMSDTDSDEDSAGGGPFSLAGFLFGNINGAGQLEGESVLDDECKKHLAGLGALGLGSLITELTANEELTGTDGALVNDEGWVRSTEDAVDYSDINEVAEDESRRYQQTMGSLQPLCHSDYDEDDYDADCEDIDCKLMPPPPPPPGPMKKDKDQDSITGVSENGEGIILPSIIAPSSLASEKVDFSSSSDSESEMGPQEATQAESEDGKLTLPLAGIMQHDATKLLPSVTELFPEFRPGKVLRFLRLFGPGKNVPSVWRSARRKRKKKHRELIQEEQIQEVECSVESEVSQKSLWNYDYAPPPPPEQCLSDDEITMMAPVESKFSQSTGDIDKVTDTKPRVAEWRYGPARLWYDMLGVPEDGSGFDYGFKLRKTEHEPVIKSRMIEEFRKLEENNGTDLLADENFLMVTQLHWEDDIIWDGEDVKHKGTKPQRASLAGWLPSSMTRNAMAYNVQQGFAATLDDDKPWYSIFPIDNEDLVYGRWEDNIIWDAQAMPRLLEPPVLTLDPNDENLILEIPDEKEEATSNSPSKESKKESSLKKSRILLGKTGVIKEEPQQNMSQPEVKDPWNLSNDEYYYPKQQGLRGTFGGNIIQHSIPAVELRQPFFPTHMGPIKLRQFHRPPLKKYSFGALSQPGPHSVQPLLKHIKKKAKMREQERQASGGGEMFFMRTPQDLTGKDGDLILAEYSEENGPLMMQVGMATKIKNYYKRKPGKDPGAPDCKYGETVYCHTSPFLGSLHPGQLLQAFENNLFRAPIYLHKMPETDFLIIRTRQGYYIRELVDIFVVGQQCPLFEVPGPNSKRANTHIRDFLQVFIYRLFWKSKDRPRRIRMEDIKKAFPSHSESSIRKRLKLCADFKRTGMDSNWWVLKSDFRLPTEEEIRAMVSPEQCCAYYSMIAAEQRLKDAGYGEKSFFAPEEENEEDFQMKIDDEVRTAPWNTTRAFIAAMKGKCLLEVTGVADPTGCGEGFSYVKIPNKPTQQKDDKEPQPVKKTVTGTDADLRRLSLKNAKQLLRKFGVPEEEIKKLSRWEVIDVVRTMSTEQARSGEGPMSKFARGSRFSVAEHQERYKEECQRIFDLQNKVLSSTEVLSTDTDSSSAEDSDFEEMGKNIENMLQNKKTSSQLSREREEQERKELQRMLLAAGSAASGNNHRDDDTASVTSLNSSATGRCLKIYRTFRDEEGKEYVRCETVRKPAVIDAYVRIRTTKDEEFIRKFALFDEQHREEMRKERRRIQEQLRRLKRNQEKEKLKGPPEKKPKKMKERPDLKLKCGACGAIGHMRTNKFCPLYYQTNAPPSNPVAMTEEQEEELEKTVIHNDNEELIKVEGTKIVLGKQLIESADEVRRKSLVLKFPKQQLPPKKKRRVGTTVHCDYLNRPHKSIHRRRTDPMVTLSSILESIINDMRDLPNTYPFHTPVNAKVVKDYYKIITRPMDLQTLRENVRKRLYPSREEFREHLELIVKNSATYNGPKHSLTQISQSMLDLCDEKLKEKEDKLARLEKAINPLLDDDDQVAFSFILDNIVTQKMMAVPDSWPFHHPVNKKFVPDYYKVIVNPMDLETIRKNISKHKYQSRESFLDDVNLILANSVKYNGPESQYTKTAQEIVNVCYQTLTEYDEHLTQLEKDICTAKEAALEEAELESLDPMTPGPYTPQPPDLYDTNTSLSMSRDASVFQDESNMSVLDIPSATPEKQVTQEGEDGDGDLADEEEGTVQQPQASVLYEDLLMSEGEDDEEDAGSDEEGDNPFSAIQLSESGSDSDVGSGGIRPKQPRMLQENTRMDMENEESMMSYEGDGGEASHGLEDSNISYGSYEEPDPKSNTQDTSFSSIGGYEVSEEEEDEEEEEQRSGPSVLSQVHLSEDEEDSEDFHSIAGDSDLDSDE
T5 sequence (P53779 whole entry, the tested form may be a part): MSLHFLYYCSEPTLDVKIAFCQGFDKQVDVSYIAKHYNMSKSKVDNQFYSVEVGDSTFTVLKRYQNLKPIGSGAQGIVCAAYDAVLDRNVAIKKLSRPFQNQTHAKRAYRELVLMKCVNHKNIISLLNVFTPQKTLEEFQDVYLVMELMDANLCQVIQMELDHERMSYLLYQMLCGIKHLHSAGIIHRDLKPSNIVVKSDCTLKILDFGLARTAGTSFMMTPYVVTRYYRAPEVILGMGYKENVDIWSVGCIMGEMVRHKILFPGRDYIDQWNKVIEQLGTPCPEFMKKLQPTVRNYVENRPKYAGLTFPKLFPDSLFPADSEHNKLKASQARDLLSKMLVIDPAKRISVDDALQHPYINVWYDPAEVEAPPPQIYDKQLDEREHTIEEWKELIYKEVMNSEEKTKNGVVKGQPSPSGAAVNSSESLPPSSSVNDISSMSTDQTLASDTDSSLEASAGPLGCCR
T7 sequence (Q16539 whole entry, the tested form may be a part): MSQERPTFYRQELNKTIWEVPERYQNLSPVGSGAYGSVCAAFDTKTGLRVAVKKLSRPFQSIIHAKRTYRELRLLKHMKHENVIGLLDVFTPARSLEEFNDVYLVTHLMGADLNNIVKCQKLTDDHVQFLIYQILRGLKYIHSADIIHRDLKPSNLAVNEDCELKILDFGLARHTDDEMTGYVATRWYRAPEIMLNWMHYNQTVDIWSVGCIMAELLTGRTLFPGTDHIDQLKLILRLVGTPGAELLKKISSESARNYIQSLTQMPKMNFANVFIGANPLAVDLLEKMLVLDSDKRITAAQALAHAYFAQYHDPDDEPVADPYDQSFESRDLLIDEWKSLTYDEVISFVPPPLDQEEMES

As for `Cc1ccc(C(=O)Nc2ccc(CN3CCN(C)CC3)c(C(F)(F)F)c2)cc1C#Cc1c[nH]c2ncnc(N3CCOCC3)c12` [Compound 1], the dTm in [1] was 1.54 K; in experiment [2], 1.15 K; in experiment [3], 0.36 K; in experiment [4] it was 5.51 K; in experiment [5], 4.55 K; in experiment [6] it was 0.98 K. For the same compound, the dTm is listed as 5.43 K in experiment [7] (setting [11]), 1.39 K in experiment [8], 9.22 K in experiment [9] and 4.54 K in experiment [10].

`O=C(Nc1ccc(F)cc1)C1(C(=O)Nc2cccc(-c3c[nH]c4ncnc(N5CCOCC5)c34)c2)CC1` [Compound 2]: the dTm in [1] was 2.13 K; in experiment [2], 0.49 K; in experiment [3] it was 0.23 K; in experiment [4], 2.87 K; in experiment [5], -0.56 K; in [6] it was -0.63 K. Also, the dTm in experiment [7] (setting [11]) came to 0.08 K; in [8] it was 2.18 K; in [9], 7.39 K; in experiment [10], 5.41 K.

For `O=C(Nc1cccc(-c2c[nH]c3ncnc(N4CCOCC4)c23)c1)c1cccn(-c2ccc(F)cc2)c1=O` [Compound 4], the dTm in experiment [1] is 0.92 K; in experiment [2] it was 1.27 K; in experiment [3] it was -0.36 K; in experiment [4], 5.57 K; in experiment [5], 7.48 K; in [6] it was -0.68 K. Further, the dTm is 1.17 K in experiment [7] (setting [11]), 1.59 K in [8], 8.63 K in experiment [9] and 1.45 K in experiment [10].

On to `Cc1cc(NC(=O)C2(C(=O)Nc3ccc(F)cc3)CC2)cc(-c2c[nH]c3ncnc(N4CCOCC4)c23)c1` [Compound 6], for which the dTm in experiment [1] worked out at 1.27 K; in experiment [2], 0.20 K; in experiment [3] it was 0.30 K; in experiment [4], 2.51 K; in [5], 2.20 K; in experiment [6] it was 1.12 K. Besides, the dTm in experiment [7] (setting [11]) is listed as 1.61 K; in experiment [8] it was 1.41 K; in [9] it was 3.31 K; in experiment [10], 3.15 K.

In the case of `O=C(Nc1cccc(-c2c[nH]c3ncnc(N4CCOCC4)c23)c1)C1(C(=O)Nc2cccc3c2CCC3)CC1` [Compound 11], the dTm was 1.06 K in experiment [1]; 2.66 K in experiment [2]; -5.02 K in [3]; 4.16 K in experiment [4]; 5.69 K in experiment [5]; -0.08 K in experiment [6]. Besides, the dTm is 1.60 K in experiment [7] (setting [11]), 2.09 K in experiment [8], 5.81 K in experiment [9] and 0.22 K in experiment [10].

For the compound `O=C(Nc1ccccc1)C1(C(=O)Nc2cccc(-c3c[nH]c4ncnc(N5CCOCC5)c34)c2)CC1` [Compound 12], the dTm in experiment [1] was 3.25 K; in experiment [2] it was 1.12 K; in [3] it was -0.82 K; in experiment [4], 2.81 K; in experiment [5] it was 2.45 K; in experiment [6] it was -0.21 K. Also, the dTm is 0.0252 K in experiment [7] (setting [11]), 1.57 K in [8], 7.80 K in [9] and 3.77 K in [10].

For `O=C(Nc1ccc(Cl)cc1)C1(C(=O)Nc2cccc(-c3c[nH]c4ncnc(N5CCOCC5)c34)c2)CC1` [Compound 13], the dTm in [1] is reported as 4.69 K; in experiment [2], 1.70 K; in experiment [3], 1.29 K; in experiment [4], 3.96 K; in [5], 3.61 K; in experiment [6], -0.32 K. Moreover, the dTm in experiment [7] (setting [11]) is recorded as 1.55 K; in [8], 3.78 K; in experiment [9], 9.91 K; in experiment [10] it was 5.13 K.

In the case of `Cc1ccc(NC(=O)C2(C(=O)Nc3cccc(-c4c[nH]c5ncnc(N6CCOCC6)c45)c3)CC2)cc1` [Compound 14], the dTm is given as 1.13 K in experiment [1]; 1.11 K in experiment [2]; 0.34 K in [3]; 2.56 K in experiment [4]; -1.31 K in experiment [5]; -0.76 K in [6]. The dTm in experiment [7] (setting [11]) worked out at 0.29 K; in experiment [8], 1.05 K; in experiment [9], 7.72 K; in experiment [10], 3.59 K.

In the case of `CCc1ccc(NC(=O)C2(C(=O)Nc3cccc(-c4c[nH]c5ncnc(N6CCOCC6)c45)c3)CC2)cc1` [Compound 15], the dTm is given as 1.02 K in experiment [1]; 1.22 K in experiment [2]; 1.78 K in experiment [3]; 4.14 K in experiment [4]; -0.66 K in experiment [5]; -1.02 K in experiment [6]. Moreover, the dTm in [7] (setting [11]) is recorded as 0.36 K; in experiment [8], 2.51 K; in [9], 8.77 K; in experiment [10] it was 2.78 K.

With `COc1ccc(NC(=O)C2(C(=O)Nc3cccc(-c4c[nH]c5ncnc(N6CCOCC6)c45)c3)CC2)cc1` [Compound 16], the dTm in experiment [1] was -0.51 K; in experiment [2], 0.65 K; in [3], 0.37 K; in experiment [4] it was 1.53 K; in experiment [5] it was 0.65 K; in experiment [6] it was -0.98 K. The dTm in experiment [7] (setting [11]) is on record as -0.16 K; in [8], -0.20 K; in [9], 5.26 K; in experiment [10], 1.30 K.

For `COc1cc2c(Oc3ccc(NC(=O)C4(C(=O)Nc5ccc(F)cc5)CC4)cc3F)ccnc2cc1OCCCN1CCOCC1` [Foretinib, reference compound], the dTm in experiment [1] is recorded as 1.41 K; in [2], 8.21 K; in [3], 0.54 K; in experiment [4], 2.84 K; in experiment [5], 1.66 K; in [6] it was -0.67 K. The dTm in experiment [7] worked out at 6.85 K; in experiment [9] it was 14.26 K; in [10], 3.65 K.

Consider `Cc1ccc(C(=O)Nc2ccc(CN3CCN(C)CC3)c(C(F)(F)F)c2)cc1C#Cc1cnc2cccnn12` [Ponatinib, reference compound], for which the dTm in experiment [2] is 1.53 K; in experiment [3], -0.60 K; in [7] (setting [11]) it was 12.52 K; in experiment [8], 1.32 K.

As for `CN[C@@H]1C[C@H]2O[C@@](C)([C@@H]1OC)n1c3ccccc3c3c4c(c5c6ccccc6n2c5c31)C(=O)NC4` [Staurosporine], the figures for the dTm in [3] and in experiment [8] were 0.52 K and 8.45 K, respectively.

(Values after paper PMC12136037, “Type II kinase inhibitors that target Parkinson’s disease–associated LRRK2” (Science Advances, 2025).)
